Laboratory results: patent publication US20180303092A1, “AMINE SALTS OF CARBOXYLIC ACID HERBICIDES” (Taminco BVBA, priority 2017, published 2018)

Tests used:
Format in all cases: physicochemical
[1] = Wetting properties: contact angle of a droplet of max load product on parafilm layer; conditions: droplet on hydrophobic parafilm, read by eye
Protocol: A visual test was used to determine the wetting property. FIG. 2 is an illustration of the test. A small droplet 11 of the max load product mentioned above was deposited by a syringe pointed vertically down onto a parafilm layer 10, which is hydrophobic. A profile picture of the droplet 11 was then captured by a camera. The approximate contact angle 13 of the droplet 11 with the parafilm layer 10 was then measured by eye using a protractor.
The wetting angle determines the surface energy or chemical affinity of the salt solution with the apolar reference material. A high wetting angle indicates a […] of hydrophobic surfaces.
(§1) Several amine herbicide formulations were prepared as described above in Examples 1 and 2. The viscosity of various formulations was measured using a Brookfield viscometer with nr.87 spindle at 20° C. Wettability was measured by visually measuring the contact angle after placing a standard droplet on a parafilm layer (hydrophobic).

[2] = Maximum loading of herbicide amine salt in water (Karl-Fischer water content, HCl titration of amine); conditions: for Max Load amine g/L: amine in maximum loaded solution in water; for Max Load g ae/L: maximum loaded solution in water, acid equivalent of herbicide; for maximum loading: summary text b115
From the text: Neutralizing acidic herbicides (e.g., 2,4-D, dicamba, glyphosate, glufosinate) with amines can result in the formation of highly water soluble salts. However, practical inconveniences may occur when adding liquid amines to the solid herbicides, such as the formation of wetted powder, poorly mixed slurries, two apparently non-mixed layers, etc. To efficiently prepare a salt, the method, shown as a flowchart in FIG. 1, has been developed.
Referring to FIG. 1, step 100 involves using a mass balance to weigh 25 g of the active ingredient (a solid acidic herbicide, such as 2,4-D or dicamba) in a glass bottle. An equimolar amount of a basic amine (typically a liquid) is added to this glass bottle. Last, 2 mL of water is added. After adding the three compounds, the bottle is capped and placed on a shaking device for at least 12 hours.
At step 109, theoretical neutralization has taken place. The salt concentration can be quantified by titration. To confirm that the solid layer is solid salt and the top layer is a saturated (max. loading) solution, a small amount of water is added (the amounts of water should be small enough to avoid a complete dissolution of the solid salt). After re-equilibrium during at least 12 hours of shaking, and under the condition that two phases are still present, the salt concentration is determined again. If salt concentrations are identical as the original values, then it can be concluded that a maximum loaded solution was obtained.
To determine maximum loading of the salt in water, the method shown in the flowchart of FIG. 1 was used. The resulting sample contained at least two layers: a top layer of liquid and a bottom layer of solid salt. A water and amine determination was made of the top layer.
To check the water content, a well-established method of Karl-Fischer was used. This method gives an accurate wt % of H2O in the sample.
To determine the amine content, HCl-titration was used. HCl (0.1 N) was used as the titrant, and methanol was used as the solvent. 100-400 mg of the sample was taken from the liquid layer so that only 10-20 mL of the titrant was needed. The result was given in an EP. The following calculation was used to obtain the amine wt %:
In general, the sample's liquid phase only contains three components: water, free amine, and the herbicide salt. Therefore, the following calculation was used to determine the salt wt %:
wt %salt=100−wt %amine−wt %water
The results below are reported in g a.e./L (acid equivalent). […] The results were calculated using the following equation: […]
The MMs in the equation above are molecular weights (g/mol). ρ is the density of the liquid (g/mL), which may be measured using the density meter Anton Paar DMA 4500. F is a factor that takes into account the amount of base or acid groups on the amine or acid, respectively.
The g amine/L reported below was calculated using the following equation: […]
25.02 g of dicamba herbicide was mixed with 4.16 g of 1,2-DAP and 5.88 g of water. The ingredients were shaken for a minimum of 24 hours at room temperature (20° C.) to obtain an oversaturated salt solution (with precipitated salt crystals). Theoretically, 1 mol of dicamba can be neutralized using 0.5 mol of 1,2-DAP. Water was gradually added until all the salt crystals were dissolved to form a maximum loaded clear solution. The loading of the active ingredient was determined based on the amine content by HCl titration and the water content by Karl-Fischer.
Using the same methodology as described in Example 1, high-loaded 2,4-D salt solutions were prepared.

[3] = Viscosity of max load amine salt solutions (Brookfield viscometer, nr. 87 spindle); conditions: 20° C.
Protocol: The viscosity of the solutions prepared as above was determined using the Brookfield nr. 87 spindle. The applied speed depended on the viscosity of the sample. The torque applied was 50-80% of the machine's maximum. The results are expressed as mPa.
as §1

[4] = dicamba amine salt concentrates
[5] = dicamba amine salts, room temperature (20° C.)

| Compound | Wetting Angle ([1]; 2,4-D amine salts) | Max Load amine g/L ([2]; 2,4-D amine salts) | Max Load g ae/L ([2]; 2,4-D amine salts) | Viscosity ([3]; 2,4-D amine salts) | Wetting Angle [1, 4] | Maximum loading, amine ([2]; dicamba 1,2-DAP salt, Example 1) | Max Load amine g/L ([2]; dicamba amine salts) | Max Load g ae/L [2, 5] | maximum loading ([2]; dicamba amine salts) | Viscosity [3, 4] |
| --- | --- | --- | --- | --- | --- | --- | --- | --- | --- | --- |
| C[N+](C)(C)CCO.O=C([O-])COc1ccc(Cl)cc1Cl [2,4-D Cbase salt, reference compound] | 145 ° | 315.6 amine g/L | 195.0 g ae/L | 12.4 mPa | – | – | – | – | – | – |
| CNC.O=C(O)COc1ccc(Cl)cc1Cl [2,4-D DMA salt, reference compound] | 130 ° | 264.4 amine g/L | 936.1 g ae/L | 38.8 mPa | – | – | – | – | – | – |
| CN(C)CCO.O=C(O)COc1ccc(Cl)cc1Cl [2,4-D DMAE salt] | 105 ° | 316.9 amine g/L | 624.7 g ae/L | 74.0 mPa | – | – | – | – | – | – |
| CN(C)CCCN.O=C(O)COc1ccc(Cl)cc1Cl [2,4-D DMAPA salt] | 125 ° | 210.6 amine g/L | 863.5 g ae/L | 1,455.0 mPa | – | – | – | – | – | – |
| CC(C)CN.O=C(O)COc1ccc(Cl)cc1Cl [2,4-D MIBA salt] | 155 ° | 183.5 amine g/L | 497.8 g ae/L | 60.1 mPa | – | – | – | – | – | – |
| CNCCO.O=C(O)COc1ccc(Cl)cc1Cl [2,4-D MMEA salt] | 110 ° | 302.5 amine g/L | 774.3 g ae/L | 21.2 mPa | – | – | – | – | – | – |
| CC(N)CN.COc1c(Cl)ccc(Cl)c1C(=O)O.COc1c(Cl)ccc(Cl)c1C(=O)O [Dicamba 1,2-DAP salt] | – | – | – | – | 105 ° | 365.9 g amine/L | 365.9 amine g/L | 803.2 g ae/L | 803.2 g/L | 218.0 mPa |
| COc1c(Cl)ccc(Cl)c1C(=O)[O-].C[N+](C)(C)CCO [Dicamba Cbase salt] | – | – | – | – | 115 ° | – | 308.5 amine g/L | 481.5 g ae/L | – | 13.5 mPa |
| COc1c(Cl)ccc(Cl)c1C(=O)O.NCCOCCO [Dicamba DGA salt, reference compound] | – | – | – | – | 120 ° | – | 435.5 amine g/L | 854.9 g ae/L | 854.9 g/L | 562.5 mPa |
| CNC.COc1c(Cl)ccc(Cl)c1C(=O)O [Dicamba DMA salt, reference compound] | – | – | – | – | 135 ° | – | 211.1 amine g/L | 1036.8 g ae/L | 1036 g/L | 58.8 mPa |
| CN(C)CCO.COc1c(Cl)ccc(Cl)c1C(=O)O [Dicamba DMAE salt] | – | – | – | – | 115 ° | – | 408.3 amine g/L | 849.0 g ae/L | – | 184.4 mPa |
| CC(C)CN.COc1c(Cl)ccc(Cl)c1C(=O)O [Dicamba MIBA salt] | – | – | – | – | 130 ° | – | 475.0 amine g/L | 713.7 g ae/L | – | 46.1 mPa |
| CNCCO.COc1c(Cl)ccc(Cl)c1C(=O)O [Dicamba MMEA salt] | – | – | – | – | 120 ° | – | 357.7 amine g/L | 928.8 g ae/L | – | 3,967.0 mPa |
